Key:
Assay type in all cases: cell-based
22rv1 = test: Growth/viability assay, IC50 at 72 h; conditions: Homo sapiens
From the text: (§1) Four commercial (LnCaP, 22rv1, DU145 and PC3) and twelve non-commercial (LAPC-4 [44], CWR22, PCb2 [45], PC3Lymphnode, PC3M, PC3M-pro4 [46] and PC3M-Ln4 [47], LnCaP-104S [47], LnCaP104R1 [47], LnCaP-C81 [47], C4-2B [48], VCAP [49] and DuCaP [[49]) cell lines were selected for the in vitro experimental studies for their biological characteristics: LAPC-4 (Androgen receptor [AR] positive, androgen dependent with low Akt/mTOR activities, p53 wt); LnCaP (AR positive, androgen dependent with high Akt/mTOR activities, p53 wt); LnCaP-C81 and LnCaP-C4-2B (AR positive, androgen independent with high Akt/mTOR activities, p53 wt); 22rv1 (AR positive, androgen independent with low Akt/mTOR activities, p53 wt); PC3 (AR negative, with high Akt/mTOR activities and no p53 function (p53 del) and DU145 (AR negative, with low Akt/mTOR activities and mutant p53). PC3 and DU145 have been also transfected with AR to obtain PC3AR [50] and DU-AR [51]. Benign prostatic hyperplasia line (BPH1), and Prostatic epithelial lines (EPN and RWPE-1) were used as non-neoplastic controls. Cells were routinely cultured in appropriate medium supplemented with 10 % fetal bovine serum (FBS), 1 % pen-strep and 1 % L-glutamine (Invitrogen Corporation, Carlsbad, CA). To minimize the risk to work with misidentified and/or contaminated cell lines, DNA profiling was periodically carried out in-house to authenticate cell cultures. DNA was isolated from cell lines using a standard DNA isolation kit. STR profiling was performed by using GenePrint® 10 System (Promega Corporation, Madison, WI). An eight-capillary 3500 Genetic Analyzer (Applied Biosystems Life Technologies Europe BV, Monza, Italy) was used to separate and identify alleles using standard procedures. GenePrint® 10 System allows co-amplification and detection of eight human loci required by the guidelines ASN-0002. For non-commercial cell lines, the authentication process was carried out by comparing STR-fingerprints with those published by Adri van Bokhoven and co-workers. In addition, cell lines were stocked at very low passages and used at <15-20 subcultures.
(§2) Cells were seeded at a density of 2 x 10^4 cells/mL in 24-well plates. Cells were left to attach and grow in 5 % FCS DMEM for 24 h. After this time, cells were maintained in the appropriate culture conditions. Morphological controls were performed every day with an inverted phase-contrast photomicroscope (Nikon Diaphot, Tokyo, Japan) before cell trypsinization and counting. Cells were trypsinized and resuspended in 1.0 ml of saline, then counted using a NucleoCounter™ NC-100 (automated cell counter systems, Chemotec, Gydevang, Denmark). The effect on cell proliferation was measured by taking the mean cell number with respect to controls over time for the different treatment groups.
(§3) Viable cells were counted by using the NucleoCounter™ NC-100 (automated cell counter systems, Chemotec, Cydevang, DK). Apoptosis was evaluated by using Tali® Apoptosis Kit - Annexin V Alexa Fluor® 488 & Propidium Iodide-based, (Life Technologies Italia, Monza, Italy). Stained cells were then measured on a Tali® Image-Based Cytometer. Apoptosis was further confirmed by FACS analysis following the instructions of the manufacturer.
(§4) Six SINE analogs KPT-127, KPT-185, KPT-205, KPT-227, KPT251 and KPT-330 sharing a trifluoromethyl phenyl triazole scaffold, were investigated for their growth inhibitory and apoptotic potential in our PCa cell panel. Therefore, the effects of these XPO1 inhibitors were evaluated on the growth of PCa cell lines performing dose- and time-dependent studies. To examine the dose-dependent effects of these compounds, we treated cells with varying doses of the compounds (0, 1, 10, 50, 100, 500 and 1000 nM) and assessed viability at 72 hours after treatment. The IC50 for each compound was then calculated. […]

BPH-1 = test: Growth/viability assay, IC50 at 72 h; conditions: Homo sapiens
From the text: as §1, §2, §3, §4

C4-2B = test: Growth/viability assay, IC50 at 72 h; conditions: Homo sapiens, Fig. 2g
From the text: as §1, §2, §3, §4

CWR22 = test: Growth/viability assay, IC50 at 72 h; conditions: Homo sapiens; CWR22, Fig. 2g
From the text: as §1, §2, §3, §4

DU-AR = test: Growth/viability assay, IC50 at 72 h; conditions: Homo sapiens, Fig. 2g
From the text: as §1, §2, §3, §4

DU145 = test: Growth/viability assay, IC50 at 72 h; conditions: Homo sapiens, DU-145; DU145, Fig. 2g
From the text: as §1, §2, §3, §4

DuCaP = test: Growth/viability assay, IC50 at 72 h; conditions: Homo sapiens, Fig. 2g
From the text: as §1, §2, §3, §4

EPN = test: Growth/viability assay, IC50 at 72 h; conditions: Homo sapiens, Fig. 2g
From the text: as §1, §2, §3, §4

LAPC-4 = test: Growth/viability assay, IC50 at 72 h; conditions: Homo sapiens
From the text: as §1, §2, §3, §4

LnCaP-104S = test: Growth/viability assay, IC50 at 72 h; conditions: Homo sapiens, Fig. 2g
From the text: as §1, §2, §3, §4

LnCaP-C81 = test: Growth/viability assay, IC50 at 72 h; conditions: Homo sapiens; C-81, Fig. 2g
From the text: as §1, §2, §3, §4

LnCaP104R1 = test: Growth/viability assay, IC50 at 72 h; conditions: Homo sapiens; 104R1, Fig. 2g
From the text: as §1, §2, §3, §4

LnCaP = test: Growth/viability assay, IC50 at 72 h; conditions: Homo sapiens
From the text: as §1, §2, §3, §4

PC3AR = test: Growth/viability assay, IC50 at 72 h; conditions: Homo sapiens, PC3/AR, Fig. 2g
From the text: as §1, §2, §3, §4

PC3M-Ln4 = test: Growth/viability assay, IC50 at 72 h; conditions: Homo sapiens; PC3M-Ln4, Fig. 2g
From the text: as §1, §2, §3, §4

PC3M-pro4 = test: Growth/viability assay, IC50 at 72 h; conditions: Homo sapiens; PC3M-pro4, Fig. 2g
From the text: as §1, §2, §3, §4

PC3 = test: Growth/viability assay, IC50 at 72 h; conditions: Homo sapiens, PC-3
From the text: as §1, §2, §3, §4

PCb2 = test: Growth/viability assay, IC50 at 72 h; conditions: Homo sapiens; PCb2, Fig. 2g
From the text: as §1, §2, §3, §4

RWPE-1 = test: Growth/viability assay, IC50 at 72 h; conditions: Homo sapiens; RWPE-1, Fig. 2g
From the text: as §1, §2, §3, §4

VCaP = test: Growth/viability assay, IC50 at 72 h; conditions: Homo sapiens, Fig. 2g
From the text: as §1, §2, §3, §4

PCa cell lines = test: Growth inhibition across the PCa cell panel; conditions: Homo sapiens; 72 hours, range across the cell panel; read-out: IC50 values, range over PCa cell lines
From the text: as §1, with “STR profiling was performed by using GenePrint® 10 System (Promega Corporation, Madison, WI). An eight-capillary 3500 Genetic Analyzer (Applied Biosystems Life Technologies Europe BV, Monza, Italy) was used to separate and identify alleles using standard procedures. GenePrint® 10 System allows co-amplification and detection of eight human loci required by the guidelines ASN-0002. For non-commercial cell lines, the authentication process was carried out by comparing STR-fingerprints with those published by Adri van Bokhoven and co-workers. In addition, cell lines were stocked at very low passages and used at <15-20 subcultures.” left out
Cells were seeded at a density of 2 x 10^4 cells/mL in 24-well plates. […] Cells were trypsinized and resuspended in 1.0 ml of saline, then counted using a NucleoCounter™ NC-100 (automated cell counter systems, Chemotec, Gydevang, Denmark). The effect on cell proliferation was measured by taking the mean cell number with respect to controls over time for the different treatment groups.
as §3, with “Apoptosis was further confirmed by FACS analysis following the instructions of the manufacturer.” left out
as §4

IC50 (22rv1; 22rv1, 72 hours, Fig. 2a-f) [nM] | IC50 (22rv1; 22rv1, Fig. 2g) [nM] | IC50 (DU145) [nM] | IC50 (LnCaP-104S) [nM] | IC50 (LnCaP-C81) [nM] | IC50 (LnCaP104R1) [nM] | IC50 (LnCaP; 72 hours, Fig. 2a-f) [nM] | IC50 (LnCaP; Fig. 2g) [nM] | IC50 (PC3AR) [nM] | IC50 (PC3M-Ln4) [nM] | IC50 (PC3M-pro4) [nM] | SMILES | IC50 (BPH-1; BPH-1, BPH1, Fig. 2g) [nM] | IC50 (BPH-1; BPH-1, 72 hours, Fig. 2a-f) [nM] | IC50 (C4-2B) [nM] | IC50 (CWR22) [nM] | IC50 (DU-AR) [nM] | IC50 (DuCaP) [nM] | IC50 (EPN) [nM] | IC50 (LAPC-4; LAPC4, LAPC-4, Fig. 2g) [nM] | IC50 (LAPC-4; LAPC4, 72 hours, Fig. 2a-f) [nM] | also measured
189 ± 84 | 160 | 177 | 240 | 200 | 260 | 268 ± 34 | 268 | 233 | 200 | 330 | COc1cc(-c2ncn(/C=C\C(=O)OC(C)C)n2)cc(C(F)(F)F)c1 [KPT-185] | > 1000 | > 1000 | 179 | 230 | 143 | 270 | 1000 | 321 | 321 ± 105 | IC50 (PC3; PC3, 72 hours, Fig. 2a-f): 207 ± 44 nM; IC50 (PC3; PC3, Fig. 2g): 207 nM; IC50 (PCb2): 215 nM; IC50 (RWPE-1): 1000 nM; IC50 (VCaP): 400 nM; IC50 (PCa cell lines): 180 to 700 nM
78 ± 19 | 78 | 90 | 80 | 160 | 100 | 113 ± 12 | 301 | 80 | 60 | 125 | CC(C)OC(=O)/C=C\n1cnc(-c2cc(OC(C)C)cc(C(F)(F)F)c2)n1 [KPT-207] | > 1000 | > 1000 | 144 | 133 | 65 | 120 | 750 | 115 | 101 ± 1 | IC50 (PC3; PC3, 72 hours, Fig. 2a-f): 74 ± 5 nM; IC50 (PC3; PC3, Fig. 2g): 74 nM; IC50 (PCb2): 67 nM; IC50 (RWPE-1): 820 nM; IC50 (VCaP): 130 nM
204 ± 44 | 204 | 135 | 120 | 180 | 160 | 171 ± 30 | 171 | 144 | 80 | 180 | COc1cc(-c2ncn(/C=C\c3nnco3)n2)cc(C(F)(F)F)c1 [KPT-225] | > 1000 | > 1000 | 170 | 180 | 112 | 180 | 1000 | 223 | 223 ± 31 | IC50 (PC3; PC3, 72 hours, Fig. 2a-f): 122 ± 5 nM; IC50 (PC3; PC3, Fig. 2g): 122 nM; IC50 (PCb2): 160 nM; IC50 (RWPE-1): 1000 nM; IC50 (VCaP): 240 nM
100 ± 10 | 100 | 55 | 50 | 20 | 30 | 43 ± 4 | 43 | 62 | 55 | 90 | CC(C)OC(=O)/C=C\n1cnc(-c2cccc(Cl)c2)n1 [KPT-127] | > 1000 | > 1000 | 25 | 160 | 47 | 100 | 800 | 201 | 201 ± 15 | IC50 (PC3; PC3, 72 hours, Fig. 2a-f): 59 ± 3 nM; IC50 (PC3; PC3, Fig. 2g): 59 nM; IC50 (PCb2): 44 nM; IC50 (RWPE-1): 1000 nM; IC50 (VCaP): 100 nM; IC50 (PCa cell lines): 43 to 201 nM

Reference: paper PMC4666032, “KPT-330, a potent and selective exportin-1 (XPO-1) inhibitor, shows antitumor effects modulating the expression of cyclin D1 and survivin in prostate cancer models” (BMC Cancer, 2015)
